Speed of sound and mass density data for one molecule are collected here from the NIST ThermoML archive (doi:10.1021/acs.jced.9b00354).

The data set in a line: mn = molality of the nth substance listed, in mol/kg. The following applies: 308.15 K, 100 kPa, Liquid, m1 = 0.0148.

The speed of sound is how fast a sound wave travels through the sample. A word on the mass density: it is the mass of a sample divided by its volume.

Numbers after ± are expanded uncertainties.

`O=S(=O)([O-])[O-].[Ca+2]` [calcium sulfate] + O: the speed of sound (Single path-length method) is 1521.4 ± 0.7 m/s. Moreover, where the note is “Vibrating tube method”, the mass density was determined as 995.9 ± 10 kg/m3.
